{"source": "patent US4698332A", "about": "“Expectorant” (Mect Corporation, priority 1984, dated 1987)", "key": {"palatine mucosa of frog": {"test_system": "palatine mucosa of frog", "assay": "Mucociliary transport of frog palatine mucosa (Example 8, Table 6)", "assay_type": "cell-based", "details": "for activation at 100 µg/mL: 10^-1 mg/ml; for activation at 100 µg/mL / activation at 10 µg/mL / activation at 1 µg/mL / activation at 0.1 µg/mL: mean ± SD, over 20.0% significant, read-out: Acceleration (mucociliary transport); for activation at 10 µg/mL: 10^-2 mg/ml; for activation at 1 µg/mL: 10^-3 mg/ml; for activation at 0.1 µg/mL: 10^-4 mg/ml", "experimental": "Mucociliary transport was measured by the particle transport method. After decapitation of a frog, the surface of the palatine mucosa was separated with minimized damage and of fixed to a cork plate in a Petri dish which was then filled with 20 ml of Ringer's solution (trishydrochloric acid). The palatine mucosa was left in this state for 30 minutes before the commencement of measurement. For measurement, the Ringer's solution was removed and fine pieces of cork (capable of passing pharmaceutical sieve No. 5 but not capable of passing No. 6) were placed on the surface of the palatine mucosa, and the time (in seconds) required for the cork piece to move 1 cm was measured. The duration of movement, i.e., moving speed, was measured also in the state immediately after the removal of the Ringer's solution or pharmaceutical solution."}, "ciliated cell": {"test_system": "ciliated cell", "assay": "Rotating ciliated explant (Example 9, Table 7)", "assay_type": "cell-based", "details": "for activation at 100 µg/mL: 10^-1 mg/ml; for activation at 100 µg/mL / activation at 10 µg/mL / activation at 1 µg/mL / activation at 0.1 µg/mL: mean ± SD, > 20.0 significant, read-out: Acceleration (rotating ciliated explant); for activation at 10 µg/mL: 10^-2 mg/ml (terbutaline 1-^-2 [sic]); for activation at 0.1 µg/mL: 10^-4 mg/ml", "experimental": "Human ciliated cells were collected from a normal trachea by means of a branchoscope, the ciliated cells being separated by rubbing the bronchus while observing through the branchoscope, while the collection of frog cilitated cells was conducted by rubbing the palatine mucosta, without being specially careful. […] The groups of cells were transferred to a cover slip and one drop of chicken plasma (prepared by Difco Company) and one drop of 50% chicken embryo extract were added to the cells, thus forming clots. The rotary motion in the clots was recorded by means of a video recorder and the number of rotations per minute was measured. The agents were dissolved in the Medium 199 and were injected through a tube attached to a rose chamber. The state of rotary motion 5 minutes, 10 minutes and 15 minutes after the injection were recorded by means of a video recorder, and the number of revolutions was measured.\nA test was conducted to examine the above-mentioned effect by using sodium salt of N-Acetylneuraminic Acid, in accordance with the same testing method as that of Example 2."}, "[1]": {"test_system": "purulent sputum from patients with diffuse panbronchiolitis", "assay": "MTR of purulent sputum after sodium salt treatment (Example 10)", "set-up": "species or system human sputum; frog palatine mucosa", "details": "1 mg/ml sputum", "experimental": "(§1) The sputum used as the specimens was collected from 12 samples of patients suffering from chronic obstructive lung disease. N-acetylneuraminic acid was added to the specimen sputum in the ratios of 5 mg/ml sputum and 1 mg/ml sputum, and the specimen was left for 1 hour at 4° C. before measurement. Sputum which has not been treated by N-acetylneuraminic acid was used as a comparison example. A palatine mucosa obtained from a decapitated frog head was kept at constant temperature and humidity until the mucus liquid of the frog itself depleted. The specimen sputum was placed on the dried palatine mucosa, and the speed of movement of the sputum was observed through a noumenal microscope, thus measuring the MTR. The pH value of the sputum was measured by means of an electronic model HM-SAp pH meter, while the spinnability was measured by a device developed by Nagaoka and Yamanaka (disclosed in Transactions of 2nd Symposium of Cough and sputum, published July 20, 1979). The yield value was measured by Dulfano's double-tube method which is shown in the American Review of Respiratory Diseases, Vol. 104, p88, 1971.\n(§2) Effect of sodium salt of N-acetylneuraminic acid on sputum was examined in accordance with the testing method explained in connection with Example 5."}, "[2]": {"assay": "Rheological properties and pH of purulent sputum after sodium salt treatment (Example 10)", "set-up": "species or system human", "details": "1 mg/ml sputum", "experimental": "as §1, §2"}, "[3]": {"assay": "Acute toxicity test of sodium salt of N-acetylneuraminic acid, mouse (Example 11)", "set-up": "species or system ICR mice", "details": "in vivo", "experimental": "(§3) A test was conducted to examine the acute toxicity of sodium salt of N-acetylneuraminic acid, using mice, rats, and guinea pig by means of per as, subcutaneous injection, intravenous injection, intraperitoneal injection, and inhalation.\n(§4) 20% (W/V) dissolved in distilled water"}, "[4]": {"assay": "Acute toxicity test of sodium salt of N-acetylneuraminic acid, rat (Example 11)", "assay_type": "in vivo, SD rats", "details": "in vivo", "experimental": "as §3, §4\n(§5) Inhalation was conducted by 1hr exposure to mist."}, "rat": {"test_system": "rat", "assay": "Acute toxicity test of sodium salt of N-acetylneuraminic acid, rat (Example 11)", "assay_type": "in vivo, SD rats", "details": "inhalation, 1hr exposure to mist", "experimental": "as §3, §4, §5"}, "[5]": {"assay": "Acute toxicity test of sodium salt of N-acetylneuraminic acid, guinea pig (Example 11)", "set-up": "species or system Hartley guinea pig", "details": "in vivo, intravenous injection, 95% 2,355-4,087", "experimental": "as §3\nHartley guinea pig: 6 weeks old\nas §4"}, "[6]": {"details": "ip, intraperitoneal injection, first line (sex not given)"}, "[7]": {"details": "ip, intraperitoneal injection, second line (sex not given)"}, "[8]": {"details": "po, per os, first line (sex not given)"}, "[9]": {"details": "po, per os, second line (sex not given)"}, "[10]": {"details": "sc, subcutaneous injection, first line (sex not given)"}, "[11]": {"details": "sc, subcutaneous injection, second line (sex not given)"}}, "note": "Where a name gives a salt, the structure may show the parent alone. Read-outs that look alike come from different tables or passages of the source.", "data": [{"smiles": "CC(=O)N[C@H]1[C@H]([C@H](O)[C@H](O)CO)OC(O)(C(=O)O)C[C@@H]1O", "note": "(stereo partly drawn) [sodium salt of N-acetylneuraminic acid]", "values": [{"measurement": "activation at 100 µg/mL", "setting": "palatine mucosa of frog; 5 min, 5 min after applied", "result": "10.7 ± 19.2", "unit": "%"}, {"measurement": "activation at 10 µg/mL", "setting": "palatine mucosa of frog; 5 min, 5 min after applied", "result": "20.8 ± 25.5", "unit": "%"}, {"measurement": "activation at 1 µg/mL", "setting": "palatine mucosa of frog; 5 min, 5 min after applied", "result": "16.2 ± 19.5", "unit": "%"}, {"measurement": "activation at 0.1 µg/mL", "setting": "palatine mucosa of frog; 5 min, 5 min after applied", "result": "2.6 ± 22.2", "unit": "%"}, {"measurement": "activation at 100 µg/mL", "setting": "palatine mucosa of frog; 10 min, 10 min after applied", "result": "8.5 ± 23.4", "unit": "%"}, {"measurement": "activation at 10 µg/mL", "setting": "palatine mucosa of frog; 10 min, 10 min after applied", "result": "18 ± 29.7", "unit": "%"}, {"measurement": "activation at 1 µg/mL", "setting": "palatine mucosa of frog; 10 min, 10 min after applied", "result": "18.9 ± 22.1", "unit": "%"}, {"measurement": "activation at 0.1 µg/mL", "setting": "palatine mucosa of frog; 10 min, 10 min after applied", "result": "8.5 ± 21.9", "unit": "%"}, {"measurement": "activation at 100 µg/mL", "setting": "palatine mucosa of frog; 0.25 h, 15 min after applied", "result": "7.4 ± 24.7", "unit": "%"}, {"measurement": "activation at 10 µg/mL", "setting": "palatine mucosa of frog; 0.25 h, 15 min after applied", "result": "5.7 ± 24.9", "unit": "%"}, {"measurement": "activation at 1 µg/mL", "setting": "palatine mucosa of frog; 0.25 h, 15 min after applied", "result": "17.7 ± 34", "unit": "%"}, {"measurement": "activation at 0.1 µg/mL", "setting": "palatine mucosa of frog; 0.25 h, 15 min after applied", "result": "7.1 ± 27.2", "unit": "%"}, {"measurement": "Effect on MTR of frog palatine mucosa", "setting": "palatine mucosa of frog; Table 6", "result": "acceleration of the MTR of the frog palatine mucosa in a certain dependency on the dose"}, {"measurement": "Effect compared with acetylcholine", "setting": "palatine mucosa of frog; acetylcholine at 10^-4 mg/ml", "result": "subtantially equivalent to that of the acetylcholine"}, {"measurement": "Effect on number of rotations", "setting": "ciliated cell; 10^-3 mg/ml", "result": "A significant number of rotations was observed"}, {"measurement": "activation at 100 µg/mL", "setting": "ciliated cell; 5 min, 5 min after perfusion", "result": 0, "unit": "%"}, {"measurement": "activation at 10 µg/mL", "setting": "ciliated cell; 5 min, 5 min after perfusion", "result": "1.5 ± 11.6", "unit": "%"}, {"measurement": "activation at 1 µg/mL", "setting": "ciliated cell; 5 min, 10^-3 mg/ml, 5 min after perfusion", "result": "11.6 ± 29.8", "unit": "%"}, {"measurement": "activation at 0.1 µg/mL", "setting": "ciliated cell; 5 min, 5 min after perfusion", "result": "-3.4 ± 9.7", "unit": "%"}, {"measurement": "activation at 100 µg/mL", "setting": "ciliated cell; 10 min, 10 min after perfusion", "result": "4.7 ± 6.6", "unit": "%"}, {"measurement": "activation at 10 µg/mL", "setting": "ciliated cell; 10 min, 10 min after perfusion", "result": "2.1 ± 18.2", "unit": "%"}, {"measurement": "activation at 1 µg/mL", "setting": "ciliated cell; 10 min, 10^-3 mg/ml, 10 min after perfusion", "result": "20.7 ± 27.5", "unit": "%"}, {"measurement": "activation at 0.1 µg/mL", "setting": "ciliated cell; 10 min, 10 min after perfusion", "result": "0.6 ± 10.6", "unit": "%"}, {"measurement": "activation at 100 µg/mL", "setting": "ciliated cell; 0.25 h, 15 min after perfusion", "result": "15.4 ± 9.3", "unit": "%"}, {"measurement": "activation at 10 µg/mL", "setting": "ciliated cell; 0.25 h, 15 min after perfusion", "result": "3.7 ± 29.3", "unit": "%"}, {"measurement": "activation at 1 µg/mL", "setting": "ciliated cell; 0.25 h, 10^-3 mg/ml, 15 min after perfusion", "result": "16.2 ± 32.3", "unit": "%"}, {"measurement": "activation at 0.1 µg/mL", "setting": "ciliated cell; 0.25 h, 15 min after perfusion", "result": "-5 ± 8.2", "unit": "%"}, {"measurement": "Change of sputum MTR", "setting": "[1]", "result": "significant increase in pH value and MTR"}, {"measurement": "MTR after treatment", "setting": "[1]; 15 specimens, mean ± S.D., before 9 ± 5, P < 0.01", "result": "12 ± 5", "unit": "mm/min."}, {"measurement": "Change of spinnability", "setting": "[2]", "result": "generally increased"}, {"measurement": "Change of sputum pH", "setting": "[2]", "result": "significant increase in pH value"}, {"measurement": "Change of yield value", "setting": "[2]", "result": "a reduction was observed with regard to the yield value"}, {"measurement": "Yield value after treatment", "setting": "[2]; 15 specimens, mean ± S.D., before 0.8 ± 1.5", "result": "0.3 ± 0.6", "unit": "mmH2 O"}, {"measurement": "pH after treatment", "setting": "[2]; 15 specimens, mean ± S.D., before 7.48 ± 0.41, P < 0.001", "result": "7.91 ± 0.43"}, {"measurement": "Spinnability after treatment", "setting": "[2]; 15 specimens, mean ± S.D., before 13 ± 14", "result": "21 ± 28", "unit": "mm"}, {"measurement": "LD50 at 336 h", "setting": "[3]; [6]", "result": "> 5000", "unit": "mg/kg"}, {"measurement": "LD50 at 336 h", "setting": "[3]; [7]", "result": "> 5000", "unit": "mg/kg"}, {"measurement": "LD50 at 336 h", "setting": "[3]; iv, intravenous injection, first line (sex not given), 95% 5,679-7,084", "result": 6290, "unit": "mg/kg"}, {"measurement": "LD50 at 336 h", "setting": "[3]; iv, intravenous injection, second line (sex not given), 95% 7,214-9,073", "result": 7950, "unit": "mg/kg"}, {"measurement": "LD50 at 336 h", "setting": "[3]; [8]", "result": "> 5000", "unit": "mg/kg"}, {"measurement": "LD50 at 336 h", "setting": "[3]; [9]", "result": "> 5000", "unit": "mg/kg"}, {"measurement": "LD50 at 336 h", "setting": "[3]; [10]", "result": "> 5000", "unit": "mg/kg"}, {"measurement": "LD50 at 336 h", "setting": "[3]; [11]", "result": "> 5000", "unit": "mg/kg"}, {"measurement": "LD50 at 336 h", "setting": "[4]; [6]", "result": "> 5000", "unit": "mg/kg"}, {"measurement": "LD50 at 336 h", "setting": "[4]; [7]", "result": "> 5000", "unit": "mg/kg"}, {"measurement": "LD50 at 336 h", "setting": "[4]; iv, intravenous injection, first line (sex not given), 95% 2,638-3,342", "result": 2970, "unit": "mg/kg"}, {"measurement": "LD50 at 336 h", "setting": "[4]; iv, intravenous injection, second line (sex not given)", "result": "> 5000", "unit": "mg/kg"}, {"measurement": "LD50 at 336 h", "setting": "[4]; [8]", "result": "> 5000", "unit": "mg/kg"}, {"measurement": "LD50 at 336 h", "setting": "[4]; [9]", "result": "> 5000", "unit": "mg/kg"}, {"measurement": "LD50 at 336 h", "setting": "[4]; [10]", "result": "> 5000", "unit": "mg/kg"}, {"measurement": "LD50 at 336 h", "setting": "[4]; [11]", "result": "> 5000", "unit": "mg/kg"}, {"measurement": "LD50", "setting": "rat; first line (sex not given)", "result": "> 4,000 mg/m^3"}, {"measurement": "LD50", "setting": "rat; second line (sex not given)", "result": "> 4,000 mg/m^3"}, {"measurement": "LD50 at 336 h", "setting": "[5]", "result": 2860, "unit": "mg/kg"}]}]}
